{
  "source": "patent US20100160443A1",
  "about": "“COMPOUNDS USEFUL FOR TREATING NEUROLOGICAL DISORDERS” (Yissum Research Development Company of The Hebrew …, priority 2003, published 2010)",
  "key": {"[1]": {"tested_on": "maximal electroshock (MES) test", "conditions": "rat, cited from earlier work"}, "[2]": {"conditions": "cited from earlier work"}, "[3]": {"tested_on": "tactile allodynia in rats with SNL neuropathy", "conditions": "i.p., rat; literature data (footnoted); cited from earlier work"}, "[4]": {"tested_on": "tactile allodynia in rats with SNL neuropathy", "assay": "Tactile allodynia (von Frey filaments) in the spinal nerve ligation (SNL) model of neuropathic pain", "format": "in vivo, rat", "conditions": "for ED50: Rattus norvegicus, 1 h, read-out: ED50 (tactile allodynia threshold)", "experimental": "The effect on neuropathic pain (tactile allodynia) was measured 5-6 days following operation as disclosed above. Rats responding to mechanical stimuli of 10 g or less (in the operated leg) were eligible for the study and were included in the drug administration regime.\nBriefly, under ketamine-xylazine anesthesia the rat was placed in a prone position and the left paraspinal muscles were separated from spinous processes at the L4-S2 level. Part of the L6 transverse process was removed and the L4-L6 spinal nerves were identified. The L5-L6 spinal nerves were isolated and tightly ligated and cut, distal to the dorsal root ganglion and proximal to the formation of the sciatic nerve. Following complete homeostasis the wound was sutured.\nA volume of 4 ml/kg (volume of injected suspension/rat body weight) was then injected to the rats. […] The three drugs and the control vehicle were administered i.p. (intraperitoneally) to rats at postoperative days 7, 14 and 21 in a double blind randomized crossover manner.\nThe rat was placed on a metal mesh floor covered with a transparent plastic dome, a period of acclimatization was allowed prior to testing. VFFs were applied from underneath the mesh floor to the plantar surface of the foot. Each trial consisted of repeated applications of each of the VFFs in an ascending order for 5 times, each for a period of 1 second. testing between two consecutive ascending VFFs was separated by period of 2 min. If the rat withdrew the foot at least 3 times out of 5 at a specific VFF no further ascending filaments were tested and this filament was considered as a withdrawal threshold (response). Mechanical stimulus trials with the series of ascending VFF were repeated 2 times for a given time point. The repeated measurements were averaged and taken as the paw withdrawal threshold on a given time point.\nThe absolute threshold and the difference in the allodynic threshold (time point minus baseline) values were tested using Mann-Whitney Test and Kruskal-Wallis Nonparametric test (two tailed) followed by Dunn's Multiple comparison test. The ED50 (median effective dose) was calculated by using Probit analysis method.\nBriefly, under ketamine-xylazine anesthesia (85 mg kg^−1, i.p and 13 mg kg^−1, i.p, respectively) rats were placed in a prone position and paraspinal muscles on the left were separated from the L4-S2 spinous processes. Part of the L6 transverse process was removed and the underlying L4-L6 spinal nerves were identified. The L5 and L6 spinal nerves were isolated, tightly ligated with 5-0 silk, and cut just distal to the ligature. The ligature was approximately 8 mm distal to the corresponding dorsal root ganglion (DRG). Following complete homeostasis the wound was sutured in layers, the skin closed with Michel clips, topical bacteriostatic power was applied, and 20000 units of duplo-penicillin was injected intramuscularly (i.m.).\nWe used a set of 9 nylon von Frey monofilaments (VFF, Semmes-Weinstein monofilaments, Stoelting, Wood Dale, Ill., USA) to quantify foot withdrawal in response to normally innocuous tactile stimuli. […] Forces were calibrated by lowering filaments onto the pan of an electronic balance until they just bent.\nRats were placed on a raised wire mesh screen (gaps 4 mm×4 mm), which allowed access to the plantar surface of the hindpaw from below. They were covered with a transparent plastic dome, 13 cm high, which prevented rearing on the hindlimbs. A period of 20 min was allowed for acclimation prior to sensory testing. The mid-plantar hindpaw skin just caudal to the footpads, half way between medial and lateral edges of the foot, was subjected to a series of 5 brief probes, spaced at about 1 s. Each such stimulus was sufficient to just bend the filament. Testing began with the filament with the weakest initial bending force (0.6 g). […] Response threshold was the bending force of the first monofilament in the series that evoked a criterion ≧⅗ responses."}, "[5]": {"tested_on": "neural tube defects (NTDs)", "conditions": "cited from earlier work"}, "[6]": {"tested_on": "maximal electroshock (MES) test", "assay": "Anticonvulsant activity, maximal electroshock (MES) test", "format": "in vivo", "conditions": "different study, data not shown", "source_text": "Pain 73, 223-230); Blom, 1962 (BLOM, S. (1962). Trigeminal neuralgia: its treatment with a new anticonvulsant drug. Lancet; 1, 839-840); Rogawski & Loscher, 2004b (ROGAWSKI, M. A., & LOSCHER, W. (2004b). The neurobiology of antiepileptic drugs for the treatment of nonepileptic conditions. Nat. Med., 10, 685-692)). The availability of ED50 data for a series of new anticonvulsant isomers and analogues of VPD (valpromide) provides an opportunity for testing this hypothesis. […] Philadelphia: Lippincott Williams & Wilkins))."}, "[7]": {"tested_on": "motor performance (rotarod test)", "assay": "Neurological motor dysfunction tests (accelerating rotarod, observation for sedation)", "experimental": "On the day of testing, a baseline response was obtained, and rats were subsequently administered drug or vehicle. […] In addition, we examined our rats individually for signs of motor dysfunction and sedation as assessed by posture and gate during spontaneous and induced movement, grooming, chewing, stepping reflex, and startle reflex evoked by tapping on the cage.\nFor each drug and dose, attenuation of tactile allodynia (threshold measured in g) was measured. […] These areas under the response curve values for every group of rats per dose were evaluated against vehicle treatment using the nonparametric Wilcoxon one tailed test (dose of drug tested vs. vehicle on the same treatment). […] A p value <0.05 was considered statistically significant."}, "[8]": {"conditions": "p.o., taken from previous studies"}, "[9]": {"conditions": "i.p., rat, 60 min post injection, DID at 120 min"}},
  "note": "“Also recorded” adds a separate entry of the source. Read-outs that look alike come from different tables or passages of the source. Marks after values point to notes of the source that are not given here.",
  "data": [
    {"compound": "NC(=O)N1c2ccccc2C=Cc2ccccc21", "note": "[CBZ, carbamazepine]", "values": [
      {"measurement": "MES-ED50", "setting": "[1]; [8]", "value": "5.4^a mg kg^−1"},
      {"measurement": "Brain-to-plasma ratio", "setting": "[2]; literature data", "value": "1.0^i"},
      {"measurement": "SNL-ED50", "setting": "[3]", "value": ">30^c mg kg^−1"}
    ]},
    {"compound": "CC(C)C(C(=O)O)C(C)C", "note": "[DIA, diisopropylacetic acid]", "values": [
      {"measurement": "antiallodynic effect / effectiveness for treating neuropathic pain", "setting": "[4]; rat, in vivo", "value": "effective for treating neuropathic pain"},
      {"measurement": "SNL-ED50", "setting": "[4]; rat, in vivo, ip", "value": ">300", "unit": "mg/kg"},
      {"measurement": "lowest effective dose (significant increase of the allodynic threshold vs vehicle)", "setting": "[4]; rat, in vivo, ip", "value": 300, "unit": "mg/kg"},
      {"measurement": "rats regarded as protected at the highest dose", "setting": "[4]; rat, in vivo, ip", "value": 25, "unit": "%"}
    ]},
    {"compound": "NC(=O)OCC(COC(N)=O)c1ccccc1", "note": "[FBM, felbamate]", "values": [
      {"measurement": "MES-ED50", "setting": "[1]; [8]", "value": "25.3^a mg kg^−1"},
      {"measurement": "Brain-to-plasma ratio", "setting": "[2]; literature data", "value": "0.64^f"},
      {"measurement": "SNL-ED50", "setting": "[3]", "value": ">600^d mg kg^−1"}
    ]},
    {"compound": "NCC1(CC(=O)O)CCCCC1", "note": "[GBP, gabapentin]", "values": [
      {"measurement": "MES-ED50", "setting": "[1]; in vivo, po", "value": "14.8^a mg kg^−1"},
      {"measurement": "Brain-to-plasma ratio", "setting": "[2]; rat, in vivo", "value": "0.85^e"},
      {"measurement": "SNL-ED50", "setting": "[3]", "value": "34^d mg kg^−1"}
    ]},
    {"compound": "Nc1nnc(-c2cccc(Cl)c2Cl)c(N)n1", "note": "[LTG, lamotrigine]", "values": [
      {"measurement": "MES-ED50", "setting": "[1]; [8]", "value": "1.3^a mg kg^−1"},
      {"measurement": "Brain-to-plasma ratio", "setting": "[2]; literature data", "value": "0.4^h"},
      {"measurement": "SNL-ED50", "setting": "[3]", "value": ">100^d mg kg^−1"}
    ]},
    {"compound": "CNC(=O)C1C(C)(C)C1(C)C", "note": "[M-TMCD, N-methyl-2,2,3,3-tetramethylcyclopropanecarboxamide]", "values": [
      {"measurement": "ED50", "setting": "[4]; ip", "value": 41, "unit": "mg/kg"},
      {"measurement": "antiallodynic effect / effectiveness for treating neuropathic pain", "setting": "[4]; rat, in vivo", "value": "effective for treating neuropathic pain"},
      {"measurement": "dose dependence of the antiallodynic effect", "setting": "[4]; rat, in vivo, ip", "value": "in a dose dependent manner"},
      {"measurement": "time of maximal effect after administration", "setting": "[4]; rat, in vivo, ip", "value": 60, "unit": "min"},
      {"measurement": "teratogenicity", "setting": "[5]; in vivo", "value": "lack of teratogenicity"}
    ]},
    {"compound": "CCCC(CCC)C(=O)NC", "note": "[MVPD, N-methyl-valpromide, reference compound]", "values": [
      {"measurement": "MES-ED50", "setting": "[1]; [8]", "value": 65, "unit": "mg/kg"},
      {"measurement": "SNL-ED50", "setting": "[4]; [9]", "value": ">120", "unit": "mg/kg"}
    ]},
    {"compound": "CC1(C)C(C(=O)O)C1(C)C", "note": "[TMCA, 2,2,3,3-tetramethylcyclopropanecarboxylic acid]", "values": [
      {"measurement": "anticonvulsant activity in the rat-MES test", "setting": "[6]", "value": "without any anticonvulsant activity"},
      {"measurement": "antiallodynic effect / effectiveness for treating neuropathic pain", "setting": "[4]; SNL model, rat", "value": "exhibit antiallodynic effect"}
    ]},
    {"compound": "CC1(C)C(C(N)=O)C1(C)C", "note": "[TMCD, 2,2,3,3-tetramethylcyclopropanecarboxamide]", "values": [
      {"measurement": "anticonvulsant activity in the rat-MES test", "setting": "[6]", "value": "without any anticonvulsant activity"},
      {"measurement": "ED50", "setting": "[4]; ip", "value": 84.5, "unit": "mg/kg"},
      {"measurement": "antiallodynic effect / effectiveness for treating neuropathic pain", "setting": "[4]; rat, in vivo", "value": "exhibit antiallodynic effect; also recorded: effective for treating neuropathic pain"},
      {"measurement": "dose dependence of the antiallodynic effect", "setting": "[4]; rat, in vivo, ip", "value": "in a dose dependent manner"},
      {"measurement": "time of maximal effect after administration", "setting": "[4]; rat, in vivo, ip", "value": 60, "unit": "min"}
    ]},
    {"compound": "CCC(C)C(CC)C(=O)O", "note": "(stereo not shown) [VCA, 2-ethyl-3-methyl-pentanoic acid]", "values": [
      {"measurement": "SNL-ED50", "setting": "[4]; [9]", "value": ">300", "unit": "mg/kg"}
    ]},
    {"compound": "CCC(C)C(CC)C(N)=O", "note": "(stereo not shown) [VCD, 2-ethyl-3-methyl-pentanoic acid amide]", "values": [
      {"measurement": "MES-ED50", "setting": "[1]; [8]", "value": "29^c mg kg^−1"},
      {"measurement": "ED50", "setting": "[4]; ip", "value": 52.3, "unit": "mg/kg"},
      {"measurement": "dose dependence of the antiallodynic effect", "setting": "[4]; i.p., rat", "value": "in a dose dependent manner"},
      {"measurement": "antiallodynic effect / effectiveness for treating neuropathic pain", "setting": "[4]; rat, in vivo", "value": "effective for treating neuropathic pain"},
      {"measurement": "SNL-ED50", "setting": "[4]; rat, in vivo, ip", "value": 52, "unit": "mg/kg"},
      {"measurement": "time of maximal effect after administration", "setting": "[4]; rat, in vivo, ip", "value": 60, "unit": "min"},
      {"measurement": "neurological motor dysfunction or sedation at the highest drug dose tested", "setting": "[7]; highest drug dose tested, normal rats", "value": "not sufficient to cause neurological motor dysfunction or sedation"},
      {"measurement": "teratogenicity", "setting": "[5]; literature", "value": "distinctly less teratogenic than VPA"}
    ]},
    {"compound": "CCCC(CCC)C(N)=O", "note": "[VPD, valpromide, reference compound]", "values": [
      {"measurement": "MES-ED50", "setting": "[1]; [8]", "value": "32^b mg kg^−1"},
      {"measurement": "SNL-ED50", "setting": "[4]; [9]", "value": 61, "unit": "mg/kg"},
      {"measurement": "Brain-to-plasma ratio", "setting": "[2]; literature data", "value": "0.84^c"},
      {"measurement": "neurological motor dysfunction or sedation at the highest drug dose tested", "setting": "[7]; rat, in vivo", "value": "not sufficient to cause neurological motor dysfunction or sedation"}
    ]}
  ]
}
